≈ marks a conversion by molar mass, not a printed value.
Columns and labels:
DKK-1 = DKK-1 synthesis and release, ELISA; type: cell-based, human; conditions: tested at 100 nm; p<0.01
Method: The object of this study is to evaluate the effect of the compound known as “peregrina peptide hydrolyzate” on DKK-1 synthesis and release in a model composed of normal human fibroblasts in monolayer culture.
Protocol: Human fibroblast cells were obtained from a donor. To perform the experiments, the fibroblasts were grown as a monolayer culture until confluence was reached. 100 nM dexamethasone was used as a reference inducer of DKK-1 synthesis and release.
[…] were incubated for 48 hours in the absence (control) or presence of reference product or test product: Peregrina peptide hydrolyzate: 0.01%; 0.1% and 0.5% (v/v).
At the end of the incubation, the incubation media were removed to perform the DKK-1 release measurement.
The test compound “peregrina peptide hydrolyzate” was diluted directly in the incubation medium so as to reach the various concentrations described above.
At the end of the 48-hour incubation period, the DKK-1 released into the incubation media was quantified by means of a specific sensitive ELISA kit.
At the end of the incubation period, the proteins contained in the cell lyzates were quantified by means of a spectrocolorimetric method (Bradford method).
The results are expressed as ng DKK-1 per mg of protein (mean±S.D.).

[1] = tested on: mouse embryo fibroblasts of the Balb/c 3T3 clone 31 line; test: In vitro phototoxicity test 3T3 NRU; type: cell-based; conditions: BALB/c3T3, light or radiation study
Method: The cytotoxicity is evaluated by determining cell viability using a vital stain: neutral red, 24 hours after treatment with the reference elements and the extract of M. peregrina according to the invention with or without UVA irradiation. […] The positive control is a chlorpromazine solution (CAS No.: 69-09-0). The negative control is a diluent for the test extract and for the reference (buffered saline solution±1% solvent). The peptide hydrolyzate was tested at eight concentrations in at least four culture wells per concentration studied, in the presence or absence of UVA. […]
The seeded plates were incubated for 24 hours at 37° C. and 5% CO2. […] The pH of the highest concentration was measured; it was between 6.5 and 7.8. […] The spectral irradiance of the test device was measured in the wavelength range from 250 to 700 nanometers with a calibrated spectroradiometer.
One of the two plates was irradiated with its cover on at room temperature, and the other plate was protected from UVA and was maintained at room temperature during the irradiation. […] The next day, the cell viability (growth, morphology, monolayer integrity) was evaluated by observations using a phase-contrast microscope. […] The absorbance values were measured at 450 nm.

SMILES	increase of released DKK-1 relative to the control (DKK-1) [%]	IC50 ([1]; in the absence of UVA) [µg/mL]	IC50 ([1]; in the presence of UVA) [µg/mL]
C[C@@H]1C[C@H]2[C@@H]3CCC4=CC(=O)C=C[C@]4(C)[C@@]3(F)[C@@H](O)C[C@]2(C)[C@@]1(O)C(=O)CO [dexamethasone]	181.8	–	–
CN(C)CCCN1c2ccccc2Sc2ccc(Cl)cc21 [Chlorpromazine, chlorpromazine]	–	7 to 90 (≈ 22 to 282 µM)	0.1 to 2

Source: patent US12303587B2, “Extract of Moringa peregrina seed cake, method for obtaining same and use thereof in cosmetic or nutricosmetic compositions” (AGENCE FRANCAISE POUR LE DEVELOPPEMENT D'AL ULA, priority 2020, dated 2025)
